Assay results published in patent US6555356B2, “Methods for microbial regulation” (Unisearch Limited, priority 1995, dated 2003).
≈ marks a conversion by molar mass, not a printed value. Entries after “also recorded” stand apart in the source; their conditions may differ.

What was measured:
Format in all cases: cell-based
strain R12 [1] = assay: Marine isolate swarming, strain R12
Protocol: (§1) Serratia liquefaciens was grown in liquid LB medium at room temperature to an optical density of 0.3 at 450 nm and stable inoculated onto LB agar (0.7% agar) plates. Plates were incubated at 30° C. and observed regularly for swarming behaviour. The effect on swarming of furanone compounds was tested by adding (after sterilisation and cooling of the agar) compounds 1-13 (FIG. 3). in the concentration range of 5-100 μg/ml, to the plates.
(§2) Methods followed those described for Serratia liquefaciens (above). Inhibition of growth of these bacteria by furanones was assessed as above.

strain R86 [2] = assay: Marine isolate swimming, strain R86
strain R130 [3] = assay: Marine isolate swimming, strain R130
strain R86 [4] = assay: Marine isolate growth in liquid media, strain R86
Protocol: (§3) The effect on growth of Serratia liquefaciens by furanone compounds was also measured in liquid LB medium by comparing growth of cultures without the addition of compounds versus growth of cultures with added furanone compounds (100 μg/ml of compounds 1-13 (FIG. 3) in separate cultures). Growth was measured as optical density at 450 nm and followed over a 48 hr period.
as §2

strain R12 [5] = assay: Marine isolate growth in liquid media, strain R12
Protocol: as §3, §2

Erwinia carotovora [6] = assay: Growth of Erwinia carotovora
strain R130 [7] = assay: Marine isolate growth in liquid media, strain R130
Protocol: as §3, §2

Serratia liquefaciens [8] = assay: Serratia liquefaciens swarming assay; details: 5-100 μg/ml in LB agar (0.7%) plates
Protocol: as §1

Proteus mirabilis [9] = assay: Proteus mirabilis swarming assay; details: LB10 with 1.5% agar
strain V55 [10] = assay: Marine isolate growth in liquid media, strain V55
Protocol: as §3, §2

strain V55 [11] = assay: Marine isolate swarming, strain V55
Protocol: as §1, §2

Serratia liquefaciens [12] = assay: Serratia liquefaciens exoprotease assay (skim milk agar clearing zones); details: 100 μg/ml; for exoprotease activity of the wild type: Serratia liquefaciens wild type; for Effect on HSL phenotype: exoenzymes (exoprotease production): Serratia liquefaciens
Protocol: For assays of production of exoproteases by Serratia liquifaciens the bacteria were cultured as above and inoculated in liquid LB medium. The effects of furanone compounds were tested by adding compounds 3 and 4 (FIG. 3) at 100 μg/ml. Aliquots were withdrawn from the cultures, centrifuged and sterile filtered. Sixty microliters of supernatant were added to wells in skim milk agar plates (1.5% skim milk in M9 medium). Plates were incubated at room temperature and observed for clearing zones around the wells.

strain V55 [13] = assay: Marine isolate swimming, strain V55
Proteus mirabilis [14] = assay: Proteus mirabilis growth; details: concentrations inhibitory to swarming, 37 C
Protocol: as §2

strain R130 [15] = assay: Marine isolate swarming, strain R130
Protocol: as §1, §2

Erwinia carotovora [16] = assay: Erwinia carotovora (exoenzyme) assay on potato slices
Protocol: Inoculants from precultured E. carotovora were added to slices of potatoes. Degradation (softening and browning) of the potato was compared on slices with and without furanone compounds (3 and 4).

strain V21 [17] = assay: Marine isolate growth in liquid media, strain V21
Protocol: as §3, §2

strain V21 [18] = assay: Marine isolate swarming, strain V21
Protocol: as §1, §2

Vibrio fisheri [19] = assay: Growth of Vibrio fisheri
Protocol: as §3
(§4) Initial assays for both strains of Vibrio were streaked onto LB agar plates (with 2% NaCl) with and without furanone compounds 1-4 at 5-100 μg/ml. Bioluminescence of the plates was visually assessed after 24 hours of incubation at room temperature. In subsequent assays, both strains were grown in liquid culture in the presence of furanones. Bioluminescence was assayed via a luminometer. The effects of furanones on growth of both strains were assayed as above.

Pseudomonas aeruginosa [20] = assay: Growth of Pseudomonas aeruginosa on plates; details: 100 μg/ml
Protocol: (§5) Inoculants from precultures were streaked onto Peptone-Tryptic Soy Broth agar containing 0.3% elastin. Plates were incubated at 37° C. and observed for hydrolysis of the elastin. The effect of furanone compounds was assess by adding compounds 1-4 (100 μg/ml) to the plates and comparing zones of hydrolysis in plates with and without the compounds.

strain V54 [21] = assay: Marine isolate swimming, strain V54
strain V54 [22] = assay: Marine isolate growth in liquid media, strain V54
Protocol: as §3, §2

Serratia liquefaciens [23] = assay: Growth of Serratia liquefaciens in liquid LB medium; details: 100 μg/ml
Protocol: as §3

[24] = tested on: Chromobacterium violencia; assay: Growth of Chromobacterium violencia; details: 100 μg/ml
Protocol: as §3
A mutant of Chromobacterium violencia negative for the HSL auto inducer was used in the assay. The strain was pour plated in LB medium at high density and wells were punched after the media had set. Sterile, filtered supernatants from various HSL producing strains were added to the wells. Plates were incubated at 30° C. and observed for the formation of purple zones (due to […]) around the wells. The effects of furanone compounds 1 and 2 (FIG. 3) were assessed by running this assay on plates of LB medium containing furanone compounds at a concentration of 100 μg/ml. The effects of the compounds on growth of Chromobacterium were assessed as above.

Proteus mirabilis [25] = assay: Proteus mirabilis swimming; details: concentrations inhibitory to swarming, LB10 with 0.3% agar
strain R12 [26] = assay: Marine isolate swimming, strain R12
strain V21 [27] = assay: Marine isolate swimming, strain V21
Pseudomonas aeruginosa [28] = assay: Pseudomonas aeruginosa (elastase) assay; details: 100 μg/ml in elastin agar
Protocol: as §5

Vibrio harveyi [29] = assay: Growth of Vibrio harveyi
Protocol: as §3, §4

strain R86 [30] = assay: Marine isolate swarming, strain R86
Protocol: as §1, §2

strain V54 [31] = assay: Marine isolate swarming, strain V54
Protocol: as §1, §2

Vibrio fisheri [32] = assay: Vibrio fisheri bioluminescence assay; details: 100 μg/ml, visual inspection of agar plates
Protocol: as §4

Candida albicans = assay: Fungal growth inhibition zone assay, Candida albicans
Protocol: (§6) In addition to the tests described above, the effects of selected compounds of the general formula 2 on growth of bacteria, one yeast (Candida albicans) and one fungus (Helminthosporium sp.) were assessed. Bacteria were grown in liquid media in the presence of different concentrations of furanones and growth measured via changes in optical density (OD). Fungal assays were done by inoculating agar plates with spores. These plates contained different concentrations of furanone compounds in wells within the plates. Zones of inhibition around these wells were measured after 48 hours.

Helminthosporium sp. = assay: Fungal growth inhibition zone assay, Helminthosporium sp.
Protocol: as §6

Vibrio harveyi [33] = assay: Vibrio harveyi bioluminescence assay; details: 100 μg/ml, visual inspection of agar plates
Protocol: as §4

| SMILES | Minimum inhibitory concentration, Swarming (strain R12 [1]) [µg/mL] | Minimum inhibitory concentration, Swimming (strain R86 [2]) [µg/mL] | Minimum inhibitory concentration, Swimming (strain R130 [3]) [µg/mL] | Minimum inhibitory concentration, Growth (strain R86 [4]) [µg/mL] | Minimum inhibitory concentration, Growth (strain R12 [5]) [µg/mL] | Effect on bacterial growth (Erwinia carotovora [6]) | Minimum inhibitory concentration, Growth (strain R130 [7]) [µg/mL] | Effect on HSL phenotype: swarming (Serratia liquefaciens [8]) | Minimum inhibitory concentration, Growth (strain V55 [10]) [µg/mL] | Minimum inhibitory concentration, Swarming (strain V55 [11]) [µg/mL] | exoprotease activity of the wild type (Serratia liquefaciens [12]) | Effect on HSL phenotype: exoenzymes (exoprotease production) (Serratia liquefaciens [12]) | Minimum inhibitory concentration, Swimming (strain V55 [13]) [µg/mL] | Minimum inhibitory concentration, Swarming (strain R130 [15]) [µg/mL] | Effect on HSL phenotype: exoenzymes (Erwinia carotovora [16]) | Minimum inhibitory concentration, Growth (strain V21 [17]) [µg/mL] | Minimum inhibitory concentration, Swarming (strain V21 [18]) [µg/mL] | Effect on bacterial growth (Vibrio fisheri [19]) | Effect on bacterial growth (Pseudomonas aeruginosa [20]) | Minimum inhibitory concentration, Swimming (strain V54 [21]) [µg/mL] | further results |
| --- | --- | --- | --- | --- | --- | --- | --- | --- | --- | --- | --- | --- | --- | --- | --- | --- | --- | --- | --- | --- | --- |
| CCCC(O)C1=C(Br)C(=CBr)OC1=O (stereo not shown) [Compound 4] | 5 (≈ 15.3 µM) | 25 (≈ 76.7 µM) | 25 (≈ 76.7 µM) | 25 (≈ 76.7 µM) | 25 (≈ 76.7 µM) | without inhibiting; also recorded: no effect | 25 (≈ 76.7 µM) | inhibit | 25 (≈ 76.7 µM) | 5 (≈ 15.3 µM) | 3 and 4 decreases | inhibit; also recorded: decrease/ | 5 (≈ 15.3 µM) | 5 (≈ 15.3 µM) | decreases; also recorded: inhibit | 5 (≈ 15.3 µM) | 5 (≈ 15.3 µM) | no effect | no detectable effect | 5 (≈ 15.3 µM) | Effect on swarming (Proteus mirabilis [9]): inhibited; Effect on growth (Proteus mirabilis [14]): did not affect; Minimum inhibitory concentration, Growth (strain V54 [22]): 25 µg/mL (≈ 76.7 µM); Effect on bacterial growth (Serratia liquefaciens [23]): no effect; Effect on bacterial growth [24]: inhibit; Effect on swimming (Proteus mirabilis [25]): did not affect; Minimum inhibitory concentration, Swimming (strain R12 [26]): 25 µg/mL (≈ 76.7 µM); Minimum inhibitory concentration, Swimming (strain V21 [27]): 5 µg/mL (≈ 15.3 µM); Effect on HSL phenotype: elastase (Pseudomonas aeruginosa [28]): inhibited; also recorded: delay/; Effect on bacterial growth (Vibrio harveyi [29]): no effect; Minimum inhibitory concentration, Swarming (strain R86 [30]): 5 µg/mL (≈ 15.3 µM); Minimum inhibitory concentration, Swarming (strain V54 [31]): 5 µg/mL (≈ 15.3 µM) |
| CCCC(OC(C)=O)C1=C(Br)C(=CBr)OC1=O (stereo not shown) [Compound 3] | 5 (≈ 13.6 µM) | >50 | >50 | >50 | >50 | no effect | 25 (≈ 67.9 µM) | inhibit | 5 (≈ 13.6 µM) | 5 (≈ 13.6 µM) | 3 and 4 decreases | inhibit; also recorded: decrease/ | 5 (≈ 13.6 µM) | 25 (≈ 67.9 µM) | no effect | 5 (≈ 13.6 µM) | 5 (≈ 13.6 µM) | no effect | no effect | 5 (≈ 13.6 µM) | Effect on HSL phenotype: luminescence (Vibrio fisheri [32]): inhibit; width of inhibition zone (Candida albicans; amount added 0.1 μg): 0 mm; width of inhibition zone (Candida albicans; amount added 1 μg): 0 mm; width of inhibition zone (Candida albicans; amount added 10 μg): 1-2 mm; width of inhibition zone (Candida albicans; amount added 100 μg): 2-3 mm; Minimum inhibitory concentration, Growth (strain V54 [22]): 25 µg/mL (≈ 67.9 µM); width of inhibition zone (Helminthosporium sp.; amount added 0.1 μg): 0 mm; width of inhibition zone (Helminthosporium sp.; amount added 1 μg): 0 mm; width of inhibition zone (Helminthosporium sp.; amount added 10 μg): 6-9 mm; width of inhibition zone (Helminthosporium sp.; amount added 100 μg): 6-20 mm; Effect on bacterial growth (Serratia liquefaciens [23]): no effect; Effect on HSL phenotype: luminescence (Vibrio harveyi [33]): inhibit; Minimum inhibitory concentration, Swimming (strain R12 [26]): 50 µg/mL (≈ 136 µM); Minimum inhibitory concentration, Swimming (strain V21 [27]): 25 µg/mL (≈ 67.9 µM); Effect on HSL phenotype: elastase (Pseudomonas aeruginosa [28]): inhibited; also recorded: delay/; Effect on bacterial growth (Vibrio harveyi [29]): no effect; Minimum inhibitory concentration, Swarming (strain R86 [30]): 5 µg/mL (≈ 13.6 µM); Minimum inhibitory concentration, Swarming (strain V54 [31]): 5 µg/mL (≈ 13.6 µM) |
